Results: ChEMBL document CHEMBL1130974, “High affinity phenylglycinol-based NK1 receptor antagonists” (Bioorg Med Chem Lett, 1998)

Legend:
Substance-P receptor = Substance-P receptor (Homo sapiens, UniProt P25103); experiment: Affinity towards hNK1 receptor by displacement of [125I]- Substance P from hNK1 receptor expressed in CHO cells; format: cell-based
[1] = Steady state volume of distribution dosing at 3 mg/kg iv; format: ADME, organism-based; design: dose 3 mg/kg, route intravenous; details: rat, in vivo
[2] = Plasma elimination half-life was determined; format: ADME, organism-based; details: rat
[3] = Tmax was determined; format: ADME, organism-based; details: rat, in vivo
[4] = Oral bioavailability; format: ADME, organism-based; details: rat, in vivo
[5] = Maximal plasma drug concentration was determined; format: ADME, organism-based; details: rat
Substance-K receptor = biological target: T1, Substance-K receptor (Homo sapiens, UniProt P21452); experiment: Binding affinity for Tachykinin receptor 2
T1 sequence (P21452 whole entry): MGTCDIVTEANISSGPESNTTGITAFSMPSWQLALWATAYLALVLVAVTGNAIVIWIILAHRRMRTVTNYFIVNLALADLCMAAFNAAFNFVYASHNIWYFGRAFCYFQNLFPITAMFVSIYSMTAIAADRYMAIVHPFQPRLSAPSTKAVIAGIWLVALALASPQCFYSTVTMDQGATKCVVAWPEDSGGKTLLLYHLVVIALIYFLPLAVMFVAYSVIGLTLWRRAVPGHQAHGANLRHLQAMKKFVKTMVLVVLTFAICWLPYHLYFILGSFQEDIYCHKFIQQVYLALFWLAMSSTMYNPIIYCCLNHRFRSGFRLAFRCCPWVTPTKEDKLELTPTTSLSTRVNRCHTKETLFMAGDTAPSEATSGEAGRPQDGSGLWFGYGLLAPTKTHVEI

Neuromedin-K receptor = biological target: T2, Neuromedin-K receptor (Homo sapiens, UniProt P29371); experiment: Binding affinity for Tachykinin receptor 3
T2 sequence (P29371 whole entry): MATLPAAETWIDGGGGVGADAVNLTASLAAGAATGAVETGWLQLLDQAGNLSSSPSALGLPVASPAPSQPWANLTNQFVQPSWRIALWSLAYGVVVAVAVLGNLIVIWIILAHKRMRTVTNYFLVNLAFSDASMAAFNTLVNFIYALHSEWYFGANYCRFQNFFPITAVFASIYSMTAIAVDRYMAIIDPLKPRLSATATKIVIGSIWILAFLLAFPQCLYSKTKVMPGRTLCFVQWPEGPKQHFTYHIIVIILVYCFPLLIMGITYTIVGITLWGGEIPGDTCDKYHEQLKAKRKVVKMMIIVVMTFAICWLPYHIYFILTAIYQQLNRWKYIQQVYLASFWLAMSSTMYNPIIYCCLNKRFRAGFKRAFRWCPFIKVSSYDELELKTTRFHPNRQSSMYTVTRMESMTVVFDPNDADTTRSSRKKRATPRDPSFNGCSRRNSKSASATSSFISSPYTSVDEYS

[6] = Low affinity binding to calcium channel

Chain of Substance-P receptor (P25103 whole entry): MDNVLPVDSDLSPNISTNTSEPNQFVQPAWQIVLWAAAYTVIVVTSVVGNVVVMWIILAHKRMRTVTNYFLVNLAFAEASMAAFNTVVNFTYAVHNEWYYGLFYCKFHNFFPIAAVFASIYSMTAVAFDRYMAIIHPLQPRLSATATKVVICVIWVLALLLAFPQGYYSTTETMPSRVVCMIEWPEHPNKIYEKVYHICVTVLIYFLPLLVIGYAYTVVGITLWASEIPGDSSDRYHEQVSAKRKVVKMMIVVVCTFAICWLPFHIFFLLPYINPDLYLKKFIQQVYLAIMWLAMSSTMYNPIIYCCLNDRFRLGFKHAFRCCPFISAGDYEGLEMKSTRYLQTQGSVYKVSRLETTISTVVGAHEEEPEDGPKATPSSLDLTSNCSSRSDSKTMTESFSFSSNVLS

Structure (SMILES)	IC50 (Substance-P receptor)	also measured
Cn1nnc(CN[C@H](COCc2cc(C(F)(F)F)cc(C(F)(F)F)c2)c2ccccc2)n1	0.015 µM	–
Cn1nnnc1CN[C@H](COCc1cc(C(F)(F)F)cc(C(F)(F)F)c1)c1ccccc1	0.01 µM	–
Cc1cc(Cl)cc(COC[C@H](c2ccccc2)N(C)Cc2n[nH]c(O)n2)c1	0.0022 µM	–
Cc1cc(COC[C@H](c2ccccc2)N(C)Cc2n[nH]c(=O)[nH]2)cc(C(C)(C)C)c1	0.00042 µM	–
CCN(Cc1n[nH]c(O)n1)[C@H](COCc1cc(C(F)(F)F)cc(C(F)(F)F)c1)c1ccccc1	0.0008 µM	–
CN(Cc1n[nH]c(O)n1)[C@H](COCc1cc(Cl)cc(Cl)c1)c1ccccc1	0.0015 µM	–
FC(F)(F)c1cc(COC[C@@H](NCc2nnc[nH]2)c2ccccc2)cc(C(F)(F)F)c1	0.005 µM	–
O=c1[nH]nc(CN[C@H](COCc2cc(C(F)(F)F)cc(C(F)(F)F)c2)c2ccccc2)[nH]1	0.0024 µM	–
CCCN(Cc1n[nH]c(O)n1)[C@H](COCc1cc(C(F)(F)F)cc(C(F)(F)F)c1)c1ccccc1	0.002 µM	–
FC(F)(F)c1cc(COC[C@@H](NCc2nn[nH]n2)c2ccccc2)cc(C(F)(F)F)c1	0.023 µM	–

Now from value to compound, other results behind:

IC50 (Substance-P receptor)	Structure (SMILES)	also measured
0.00043 µM	CN(Cc1n[nH]c(O)n1)[C@H](COCc1cc(C(F)(F)F)cc(C(F)(F)F)c1)c1ccccc1	Vd [1]: 3.5 L/kg; half-life [2]: 48 min; Tmax [3]: 30 min; bioavailability [4]: 16%; Cmax [5]: 97 ng/mL; IC50 (Substance-K receptor): > 1 µM; IC50 (Neuromedin-K receptor): > 1 µM; IC50 [6]: > 1000 µM
0.0014 µM	CN(Cc1nc[nH]n1)[C@H](COCc1cc(C(F)(F)F)cc(C(F)(F)F)c1)c1ccccc1	–
0.07 µM	CN(Cc1nn[nH]n1)[C@H](COCc1cc(C(F)(F)F)cc(C(F)(F)F)c1)c1ccccc1	–
0.013 µM	CN(Cc1nnnn1C)[C@H](COCc1cc(C(F)(F)F)cc(C(F)(F)F)c1)c1ccccc1	–
0.016 µM	CN(Cc1nnn(C)n1)[C@H](COCc1cc(C(F)(F)F)cc(C(F)(F)F)c1)c1ccccc1	–
